Measured values taken from the NIST ThermoML archive (doi:10.1016/j.jct.2006.05.008).

Assay: molar heat capacity at constant pressure; wn = mass fraction of the nth substance listed
Conditions: Small (less than 1 g) adiabatic calorimetry

CCCCn1cc[n+](C)c1.[Br-] [1-butyl-3-methylimidazolium bromide] + O
Crystal
Conditions | molar heat capacity at constant pressure [J/K/mol]
218.45 K, w2 = 0.00482 | 179.81
218.58 K, w2 = 0.0495 | 158.93
218.67 K, w2 = 0.00482 | 179.82
219.16 K, w2 = 0.0051 | 180.49
219.16 K, w2 = 0.0169 | 170.74
219.92 K, w2 = 0.0169 | 174.79
220.75 K, w2 = 0.00482 | 181.03
221.08 K, w2 = 0.00482 | 181.37
221.13 K, w2 = 0.0495 | 162.83
221.26 K, w2 = 0.0169 | 172.67
221.69 K, w2 = 0.0051 | 182.19
221.98 K, w2 = 0.0169 | 175.21
222.83 K, w2 = 0.00482 | 182.24
223.35 K, w2 = 0.0169 | 174.92
223.65 K, w2 = 0.0495 | 166.27
224.06 K, w2 = 0.0169 | 176.93
224.22 K, w2 = 0.0051 | 184.17
224.86 K, w2 = 0.00482 | 183.19
225.43 K, w2 = 0.0169 | 177.21
226.12 K, w2 = 0.0169 | 179.17
226.16 K, w2 = 0.0495 | 169.5
226.71 K, w2 = 0.00482 | 184.71
226.73 K, w2 = 0.0051 | 185.92
227.52 K, w2 = 0.0169 | 179.5
228.19 K, w2 = 0.0169 | 181.4
228.65 K, w2 = 0.0495 | 172.65
228.79 K, w2 = 0.00482 | 185.77
229.25 K, w2 = 0.0051 | 187.95
229.6 K, w2 = 0.0169 | 181.84
229.71 K, w2 = 0.0051 | 187.47
230.25 K, w2 = 0.0169 | 183.78
230.87 K, w2 = 0.00482 | 187.3
231.12 K, w2 = 0.0495 | 175.4
231.45 K, w2 = 0.0051 | 188.82
231.69 K, w2 = 0.0169 | 184.4
231.75 K, w2 = 0.0051 | 189.69
232.32 K, w2 = 0.0169 | 185.93
232.95 K, w2 = 0.00482 | 188.74
233 K, w2 = 0.0051 | 190.22
233.57 K, w2 = 0.0495 | 178.39
233.77 K, w2 = 0.0169 | 186.45
234.38 K, w2 = 0.0169 | 187.94
234.56 K, w2 = 0.0051 | 191.21
235.03 K, w2 = 0.00482 | 190.17
235.85 K, w2 = 0.0169 | 188.93
236.01 K, w2 = 0.0495 | 181.58
236.12 K, w2 = 0.0051 | 192.22
236.45 K, w2 = 0.0169 | 189.99
237.1 K, w2 = 0.00482 | 191.7
237.67 K, w2 = 0.0051 | 193.48
237.94 K, w2 = 0.0169 | 190.98
238.43 K, w2 = 0.0495 | 184.7
238.52 K, w2 = 0.0169 | 191.98
239.18 K, w2 = 0.00482 | 193.21
239.22 K, w2 = 0.0051 | 194.65
240.02 K, w2 = 0.0169 | 193.19
240.19 K, w2 = 0.00482 | 193.43
240.58 K, w2 = 0.0169 | 194.1
240.74 K, w2 = 0.0051 | 195.27
240.77 K, w2 = 0.0051 | 195.7
240.84 K, w2 = 0.0495 | 187.48
241.25 K, w2 = 0.00482 | 195.08
241.57 K, w2 = 0.00482 | 194.88
242.11 K, w2 = 0.0169 | 195.39
242.23 K, w2 = 0.0051 | 196.6
242.33 K, w2 = 0.0051 | 196.86
242.65 K, w2 = 0.0169 | 196.25
243.11 K, w2 = 0.00482 | 195.57
243.23 K, w2 = 0.0495 | 190.7
243.33 K, w2 = 0.00482 | 196.58
243.57 K, w2 = 0.0051 | 197.62
243.88 K, w2 = 0.0051 | 198.03
244.2 K, w2 = 0.0169 | 197.53
244.66 K, w2 = 0.00482 | 197.15
244.72 K, w2 = 0.0169 | 198.26
244.91 K, w2 = 0.0051 | 198.42
245.41 K, w2 = 0.00482 | 198.24
245.43 K, w2 = 0.0051 | 199.16
245.6 K, w2 = 0.0495 | 193.88
246.12 K, w2 = 0.00482 | 197.87
246.21 K, w2 = 0.00482 | 198.68
246.25 K, w2 = 0.0051 | 199.47
246.28 K, w2 = 0.0169 | 199.77
246.78 K, w2 = 0.0169 | 200.42
246.98 K, w2 = 0.0051 | 200.29
247.48 K, w2 = 0.00482 | 199.98
247.59 K, w2 = 0.0051 | 200.49
247.77 K, w2 = 0.00482 | 200.2
247.97 K, w2 = 0.0495 | 197.01
248.37 K, w2 = 0.0169 | 201.97
248.53 K, w2 = 0.0051 | 201.44
248.85 K, w2 = 0.0169 | 202.5
248.93 K, w2 = 0.0051 | 201.61
249.33 K, w2 = 0.00482 | 201.33
249.56 K, w2 = 0.00482 | 201.61
250.07 K, w2 = 0.0051 | 202.63
250.26 K, w2 = 0.0051 | 202.66
250.31 K, w2 = 0.0495 | 200.17
250.45 K, w2 = 0.0169 | 204.14
250.89 K, w2 = 0.00482 | 202.59
250.91 K, w2 = 0.0169 | 204.77
251.6 K, w2 = 0.0051 | 203.88
251.64 K, w2 = 0.00482 | 203.37
252.15 K, w2 = 0.0051 | 204.56
252.45 K, w2 = 0.00482 | 203.62
252.53 K, w2 = 0.0169 | 206.36
252.64 K, w2 = 0.0495 | 203.4
252.93 K, w2 = 0.0051 | 205.05
252.97 K, w2 = 0.0169 | 206.96
253.72 K, w2 = 0.00482 | 205.38
253.96 K, w2 = 0.00482 | 204.5
254 K, w2 = 0.00482 | 205.09
254.27 K, w2 = 0.0051 | 206.08
254.62 K, w2 = 0.0169 | 208.6
254.74 K, w2 = 0.0051 | 206.57
254.95 K, w2 = 0.0495 | 206.71
255.04 K, w2 = 0.0169 | 209.12
255.56 K, w2 = 0.00482 | 206.28
255.6 K, w2 = 0.0051 | 207.19
255.8 K, w2 = 0.00482 | 206.96
255.99 K, w2 = 0.00482 | 206.25
256.7 K, w2 = 0.0169 | 211
256.94 K, w2 = 0.0051 | 208.23

101 kPa, Liquid
Conditions | molar heat capacity at constant pressure [J/K/mol]
220.21 K, w2 = 0.0495 | 192.42
221.78 K, w2 = 0.00482 | 273.75
222.3 K, w2 = 0.0495 | 192.93
223.87 K, w2 = 0.00482 | 274.35
224.39 K, w2 = 0.0495 | 193.35
225.97 K, w2 = 0.00482 | 274.97
226.48 K, w2 = 0.0495 | 193.78
228.05 K, w2 = 0.00482 | 275.41
228.57 K, w2 = 0.0495 | 194.3
230.14 K, w2 = 0.00482 | 275.97
230.66 K, w2 = 0.0495 | 194.89
232.23 K, w2 = 0.00482 | 276.47
232.75 K, w2 = 0.0495 | 195.6
234.32 K, w2 = 0.00482 | 276.93
236.41 K, w2 = 0.00482 | 277.36
238.51 K, w2 = 0.00482 | 278.01
240.59 K, w2 = 0.00482 | 278.63
242.68 K, w2 = 0.00482 | 279.3
244.77 K, w2 = 0.00482 | 280.02
246.87 K, w2 = 0.00482 | 280.54
248.96 K, w2 = 0.00482 | 281.17
256.19 K, w2 = 0.0495 | 201.27
